Laboratory results reported in patent US20260144797A1, “METHODS OF REDUCING OR PREVENTING METASTASES” (FOGHORN THERAPEUTICS INC., priority 2022, published 2026).

How the values were obtained:
Type in all cases: in vivo
[1] = system: uveal melanoma (UM) CDX models MP-41 and MP-46; experiment: Differential gene expression by RNA-seq in UM CDX models (Example 1); settings: MP-41 and MP-46 CDX; 0.5-3 mpk QD or BID; 5 days; RNA-seq (FIG. 3)
Protocol: Uveal melanoma can be classified into Class 1 or Class 2 tumors based on the DecisionDx®-UM gene expression profiling (GEP) test, a widely used prognostic test to predict individual risk of metastasis in patients with uveal melanoma. Class 1 and 2 tumors are associated with low and high risk of metastasis, respectively. Gene expression profiling (GEP) Class 2 (dark blue), GEP Class 1 (light blue), PRAME (green), and BAP1 (orange) expression were measured in three uveal melanoma (UM) CDX models: 92-1, MP-41, and MP-46 (FIG. 2). GEP class 1 and GEP class 2 are defined in FIG. 1.
Differential gene expression was measured by RNA-seq in two uveal melanoma (UM) CDX models: MP-41 and MP-46 (FIG. 3). UM CDX model MP-41 was divided into four cohorts—cohort one was treated with 0.5 mpk of Compound A twice a day (BID), cohort two was treated with 1 mpk of Compound A once a day (QD), cohort three was treated with 1 mpk of Compound A twice a day, and cohort 4 was treated with 2 mpk of Compound A once a day. UM CDX model MP-46 was divided into six cohorts —cohort one was treated with 0.5 mpk of Compound A twice a day (BID), cohort two was treated with 1 mpk of Compound A once a day (QD), cohort three was treated with 0.75 mpk of Compound A twice a day, cohort 4 was treated with 1.5 mpk of Compound A once a day, cohort five was treated with 1.5 mpk of Compound A twice a day, and cohort six was treated with 3 mpk of Compound A twice a day. All treatments ended at 5 days, and animals were sacrificed. GEP Class 1 (green) comprises 8 genes that are high in Class 1 (low risk), and GEP Class 2 (blue) comprises 4 genes that are high in Class 2 (higher risk). PRAME (grey) positivity is associated with poor prognosis in several malignancies, including UM.

[2] = system: uveal melanoma (UM) CDX model MP-41; experiment: Differential gene expression by RNA-seq in UM CDX model MP-41 (Example 2); settings: MP-41 CDX; 0.5-2 mpk QD or BID; 4 or 5 days; RNA-seq (FIG. 4)
Protocol: Differential gene expression was measured by RNA-seq in uveal melanoma (UM) CDX model: MP-41 (FIG. 4). This CDX model is a BAP1 intact but aggressive uveal melanoma model. UM CDX model MP-41 was divided into four cohorts—cohort one was treated with 0.5 mpk of Compound A twice a day (BID), cohort two was treated with 1 mpk of Compound A once a day (QD), cohort three was treated with 1 mpk of Compound A twice a day, and cohort 4 was treated with 2 mpk of Compound A once a day. All treatments ended at 4 or 5 days, and animals were sacrificed.

[3] = system: uveal melanoma (UM) CDX models 92-1, MP-41, and MP-46; experiment: Differential gene expression by RNA-seq, MITF/SOX10 pathway (Example 3); settings: 92.1 and MP-46: 1.5 mpk QD, 6 days; MP-41: 2 mpk daily, 4 days; RNA-seq (FIG. 5)
Protocol: Differential gene expression was measured by RNA-seq in three uveal melanoma (UM) CDX models: 92-1, MP-41, and MP-46 (FIG. 5 and FIG. 6). UM CDX models 92.1 and MP-46 were treated with 1.5 mpk of Compound A, daily (QD), for 6 days, and then animals were sacrificed (FIG. 5). UM CDX model MP-41 was treated with 2 mpk of Compound A, daily, for 4 days, and then animals were sacrificed (FIG. 5). Expression of SOX10, MITF (PD markers) and their downstream targets: melanin pathway markers MLANA, PMEL, and TYR were analyzed. Cyclin D1 is a cell proliferation marker, and BRM and BRG1 were analyzed for candidate selection.

MP-41 CDX tumor = experiment: Immunohistochemistry of MP-41 CDX tumor slices
Protocol: Representative MP-41 CDX tumor slices were analyzed after 5 days of treatment with 2 mpk of Compound A (OnTx) or a Vehicle (Veh), administered daily (FIGS. 7A and 7B).

[4] = MP-41 xenograft studies (FIGS. 7A and 7B)

COC[C@@H](NC(=O)c1ccn(S(C)(=O)=O)c1)C(=O)Nc1nc(-c2cccc(N3C[C@@H](C)O[C@@H](C)C3)n2)cs1 (stereo in doubt) [Compound A, N-(1-((4-(6-(2,6-dimethylmorpholino)pyridin-2-yl)thiazol-2-yl)amino)-3-methoxy-1-oxopropan-2-yl)-1-(methylsulfonyl)-1H-pyrrole-3-carboxamide]
DecisionDx-UM Gene Expression Profile (GEP) [1]: positive shift | PRAME expression [1]: decrease | higher risk profile Class 2 genes expression [1]: decrease | BAP1 expression [2]: subtle upregulation | GDF15 expression [2]: dose-dependent downregulation | PROS1 expression [2]: dose-dependent downregulation | MITF expression [3]: sustained downregulation | SOX10 expression [3]: sustained downregulation | melanoma-specific downstream targets of MITF and SOX10, expression [3]: sustained downregulation | proliferation marker Cyclin D1 (IHC) (MP-41 CDX tumor; MP-41 CDX, 2 mpk daily, 5 days (FIGS. 7A and 7B)): decreases with treatment | melanin pathway markers downstream of MITF/SOX10 signaling (IHC) (MP-41 CDX tumor; [4]): Decrease | proliferation markers (IHC) (MP-41 CDX tumor; [4]): Decrease
